Where a SMILES comes first, the peptide text is derived from it.
| Compound | logP |
| --- | --- |
| CCC(C)C(N)C(=O)NC(C(=O)O)C(C)CC (stereo not drawn) (H-Ile-Ile-OH; configuration not given here) | -1.82 |
| Cc1ccc2c(c1)C(=O)N(CCO[N+](=O)[O-])CO2 | 2.41 |
| COC(=O)c1c(Oc2nc(OC)cc(OC)n2)cccc1C(C)=NOCC=C(Cl)Cl | 4.23 |
| Cc1cc(=O)c(O)c(CNC(=O)C(C)C)n1C | -0.35 |
| O=S(=O)(NC(=S)NC1CCCCC1)c1cnccc1NC1CCCCCCC1 | 5.04 |
| CCN(C)CC(=O)Nc1c(C)cccc1C | 1.82 |
| CCOC(=O)C1=C(C)NC(C)=C(C(=O)OC)C1c1cc(OC)c(OC)c(OC)c1 (centres undefined) | 3.39 |
| CC1(C)C=[N+]([O-])C(C)(C)C1 | -0.15 |
| CC(C)(C)Nc1nc(N)nc(O)n1 | 2.07 |
| Cc1cc2c(ccc3c(C)cc(=O)oc32)o1 | 3.08 |
| CCC(C)C(NC(=O)C(Cc1ccc(O)cc1)NC(=O)C(C)N)C(=O)O (centres undefined) | -2.04 |
| OCC1OC(n2cnc3c(NCc4ccccc4)ncnc32)C(O)C1O (centres undefined) | 1.23 |
| Cc1coc2nc3oc(=O)ccc3c(C)c12 | 1.71 |
| CC(C)N(CCC(C(N)=O)c1ccccc1Cl)C(C)C (centres undefined) | 2.83 |
| CC(C)CNc1ncnc2c1ncn2C1OC(CO)C(O)C1O (centres undefined) | 1.01 |
| CCOc1cc2ncnc(Nc3cccc(Br)c3)c2cc1OCC | 4.4 |
| Nc1nc(N)c2c(Br)cccc2n1 | 1.91 |
| O=C(O)c1cc(O)c(Br)c(O)c1 | 1.75 |
| Cc1oc2nc3oc(=O)c(C)c(C)c3cc2c1C | 2.71 |
| CC1(C)OC23CC1CCC2CCCC3(C)O (centres undefined) | 3.57 |
| O=c1ccc(/C=C/c2ccc(-n3ccnc3)cc2)n[nH]1 | 1.21 |
| O=c1nc(Nc2ccccc2)[nH]c2c1ncn2CCCCO | 1.26 |
| Cc1cc2c(ccc3c(C)c(C)c(=O)oc32)o1 | 3.27 |
| CC#CC(O)c1c(C)nc2c3c(c(C(=O)N(C)C)cn12)CCC(c1ccccc1)O3 (centres undefined) | 2.7 |
| O=C(NO)NN=Cc1cccc(C(F)(F)F)c1 | 1.64 |
| CCCNc1ncnc2c1ncn2C1OC(CO)C(O)C1O (centres undefined) | 0.54 |

| Compound | logP |
| --- | --- |
| NC1=NC(C2OCCc3ccccc32)CS1 (centres undefined) | 1.79 |
| CC(C)C(C)NC(CO)C(O)c1ccccc1 (centres undefined) | 1.61 |
| CCCCCCCCCCNCCO | 3.62 |
| O=c1ccc2ccc3occc3c2[nH]1 | 1.82 |
| O=C1CN=C(c2ccccc2F)c2cc(Br)ccc2N1 | 2.98 |
| CCCc1ccccc1CNc1[nH]cnc2ncnc1-2 | 3.47 |
| C=C(C)C(=O)OCC(COC(=O)C(=C)C)COC(=O)C(=C)C | 3.53 |
| COC1=CC(=O)c2c(c(COC(N)=O)c3n2CCC3OC(C)=O)C1=O (centres undefined) | 0.72 |
| C1CCSC1 | 1.61 |
| O=C(O)c1ccccc1C(c1ccc(O)cc1)c1ccc(O)cc1 | 2.61 |
| CC(C)(O)C1CCC2(C)CCC3(CO3)C2C1 (centres undefined) | 2.9 |
| C[N+](C)([O-])CCCN1c2ccccc2Sc2ccccc21 | 1.9 |
| CCOc1cc2ncnc(Nc3ccccc3F)c2cc1OCC | 3.02 |
| Cc1cc2ccc3occc3c2oc1=O | 2.57 |
| O=C1c2ccccc2-c2cc([N+](=O)[O-])ccc21 | 3.06 |
| Cc1cc(=O)oc2c1cc(C)c1occ(C)c12 | 3.23 |
| O=C(NS(=O)(=O)c1cnccc1NC1CCCCCCC1)N1CCCCC1 | 4.55 |
| Cc1ccc(CO)c(C=NNC(=O)c2cccc(F)c2)c1O | 3.41 |
| Oc1ccc(CNc2ncnc3nc[nH]c23)cc1 | 1.55 |
| OCCCCNc1[nH]cnc2ncnc1-2 | 0.32 |
| C=C1C(=O)OC2CC(C)C3C4CC(=O)C3(CC12)C1(C4)C(=O)OC2CC(C)C3C=CC(=O)C3(C)C(O)C21 (centres undefined) | 1.66 |
| Cc1cc2c(C)cc3oc(=O)cc(C)c3c2o1 | 3.25 |
| CCOC(=O)OC(C)C1=CCSC2C(NC(=O)C(=NOC)c3csc(N)n3)C(=O)N12 (centres undefined) | 0.96 |
| Cc1nc2c3c(c(C(=O)N(C)C)cn2c1CO)CCC(c1ccccc1)O3 (centres undefined) | 1.72 |
| NC1=NCC(CN2CCOCC2)O1 (centres undefined) | -0.22 |
| CC1=C(C#N)C(C)(C)C(C#N)=C(C)N1 | 2.47 |

| Compound | logP |
| --- | --- |
| CCN(CC)CCSC(=NO)c1nc(-c2ccccc2)no1 | 3.05 |
| Cc1ccc(C(=O)NN=Cc2c(CO)ccc(C)c2O)cc1 | 3.39 |
| C=C(Br)CON=C(C)c1cccc(Oc2nc(OC)cc(OC)n2)c1C(=O)OC | 3.73 |
| O=C1c2ccccc2OCN1CCO[N+](=O)[O-] | 1.85 |
| CC(C)(O)C1CCC2(C)CCCC(O)C2C1 (centres undefined) | 2.68 |
| On1nnc2ccccc21 | 0.69 |
| CC(C)CCNc1ncnc2nc[nH]c12 | 2.51 |
| CCOc1ccc(NC(=O)OCCN2CCCCC2)cc1 | 3.41 |
| CCCCNCc1ccc(C)cc1 | 3.49 |
| CON(C)C(=O)c1cn2c(C)c(C)nc2c2c1CCC(c1ccccc1)O2 (centres undefined) | 3.6 |
| O=C1c2ccc(C(F)(F)F)cc2OCN1CCO[N+](=O)[O-] | 3.01 |
| Cc1oc2ccc3c(C)cc(=O)oc3c2c1C | 3.28 |
| O=C(NC1CCCCC1)NS(=O)(=O)c1cnccc1NC1CCCCCCC1 | 4.96 |
| CCCCCOC1CCC(NC(=O)NC23CC4CC(CC(C4)C2)C3)CC1 (centres undefined) | 5 |
| O=C1CCC(=O)N1c1c(Cl)cccc1Cl | 0.57 |
| Cc1cccn2c1nc1ccc(N)nc12 | 1.75 |
| CC(=O)OCOC(=O)C(C)c1cccc(C(=O)c2ccccc2)c1 (centres undefined) | 3.4 |
| Clc1ccc(C=NOCCc2nnc(-c3ccccc3)o2)cc1 | 3.01 |
| Clc1cc(Cl)c(-c2c(Cl)ccc(Cl)c2Cl)c(Cl)c1 | 6.75 |
| Cc1c(O)c(=O)ccn1CCCOC(=O)c1ccc(N(C)C)cc1 | 1.66 |
| C=C1CCCC2(C)CCC(C(C)(C)O)CC12 (centres undefined) | 4.64 |
| CCCNc1ccncc1S(=O)(=O)NC(=NC#N)NC(C)C | 0.35 |
| CCCOc1ccc(NC(=O)OCCN2CCCCC2)cc1 | 4.2 |
| CN(C)CCOc1cccc(Cl)c1 | 2.82 |
| O=C(O)Cc1ccc2c(c1)SCc1ccccc1C2=O | 2.97 |
| CN1CCN(c2cc3c(cc2F)c(=O)c(C(=O)O)cn3C2CC2)CC1 | 0.15 |

| Compound | logP |
| --- | --- |
| NC1CC(CO)N(c2cc3c(cc2F)c(=O)c(C(=O)O)cn3-c2ccc(F)cc2F)C1 (centres undefined) | -0.98 |
| Cc1ccc(OCC2CN=C(N)O2)c(C)c1 (centres undefined) | 2.23 |
| CC(C)(C)c1ccc(C(CCN2CCCCC2)c2ccccc2)cc1 (centres undefined) | 6.83 |
| CC(C)C(NC(=O)C(N)Cc1ccccc1)C(=O)O (stereo not drawn) (H-Phe-Val-OH; configuration not given here) | -1.68 |
| COCCNc1ncnc2c1ncn2C1OC(CO)C(O)C1O (centres undefined) | -0.49 |
| NC(=O)c1[nH]cc(-c2ccc(Cl)cc2)c1N1CCOCC1 | 2.4 |
| CCc1c(C)nc2c3c(c(C(=O)N(C)C)cn12)CCC(c1ccccc1)O3 (centres undefined) | 3.2 |
| CSCCC(N)C(=O)NC(CC(C)C)C(=O)O (stereo not drawn) (H-Met-Leu-OH; configuration not given here) | -1.84 |
| O=C1CCC(=O)N1c1cccc(Cl)c1Cl | 0.9 |
| Cc1cc2c(o1)c(C)cc1ccc(=O)oc12 | 2.85 |
| CCOP(=O)(NC(C)CC)Oc1cc(C)ccc1[N+](=O)[O-] (centres undefined) | 2.73 |
| O=c1[nH]c2cc(Cl)ccc2c(O)c1-c1ccccc1 | 3.5 |
| O=C1N=C(N2CCCCC2)CN1c1ccc(Cl)cc1 | 2.3 |
| Cc1ccc(OCC2CN=C(N)O2)cc1C (centres undefined) | 2.1 |
| COc1ccc(CCNCC(O)CON=C(C2CC2)C2CC2)cc1OC (centres undefined) | 2.42 |
| C=C(Cl)CON=C(C)c1cccc(Oc2nc(OC)cc(OC)n2)c1C(=O)OC | 3.63 |
| Oc1cccc(CNc2ncnc3nc[nH]c23)c1 | 1.56 |
| CC(N)C(=O)NCC(=O)NC(Cc1ccccc1)C(=O)NC(C(=O)NC(Cc1ccccc1)C(=O)O)C(C)C (centres undefined) (H-AGFVF-OH; configuration not given here) | -1.1 |
| CCS(=O)(=O)n1cc(-c2ccc(Cl)cc2)c(N2CCOCC2)c1C(=O)OC | 4.2 |
| O=C1C(O)N=C(c2ccccc2)c2cc([N+](=O)[O-])ccc2N1CCO (centres undefined) | 0.72 |
| Clc1c(Br)cccc1N=C1NCCN1 | 1.82 |
| CC1CCC2OC2(C)C12CCC(C(C)(C)O)C2 (centres undefined) | 2.7 |
| O=c1cc(-c2ccc(Cl)cc2)oc2ccccc12 | 3.89 |
| O=C(O)Cc1cc(O)ccc1Nc1c(Cl)cccc1Cl | 3.94 |
| O=c1cc(-c2ccccc2)oc2c(Cl)cc(Cl)cc12 | 4.76 |
| Clc1cccc(CNc2[nH]cnc3ncnc2-3)c1 | 2.89 |

| Compound | logP |
| --- | --- |
| Cc1cc2ncccc2c2nc(N)n(C)c12 | 1.98 |
| c1ccc(CN2CCN(CCn3nc4ccccc4n3)CC2)cc1 | 3.3 |
| O=C(O)CCCCCON=C(c1ccnnc1)c1cccc(C(F)(F)F)c1 | 3.38 |
| CCCCN(CCCC)C1CCc2c(OC)cccc2C1C (centres undefined) | 5.61 |
| c1ccc(CCCNc2[nH]cnc3ncnc2-3)cc1 | 2.85 |
| O=C(NC(Cc1c[nH]c2ccccc12)C(=O)O)OCC1c2ccccc2-c2ccccc21 (centres undefined) | 4.93 |
| Cc1cc(C(=O)O)ccc1[N+](=O)[O-] | 2.42 |
| CC(NC(=O)C(C)NC(=O)C(N)C(C)C)C(=O)NC(Cc1ccccc1)C(=O)O (centres undefined) (H-VAAF-OH; configuration not given here) | -1.91 |
| N#Cc1cccc(Cn2cnc3ccccc32)c1 | 2.47 |
| CCC(C)C(NC(=O)C(NC(=O)C(N)CC(C)C)C(C)O)C(=O)O (stereo not drawn) (H-Leu-Thr-Ile-OH; configuration not given here) | -2.3 |
| CCCON=C(C)c1cccc(Oc2nc(OC)cc(OC)n2)c1C(=O)OC | 3.59 |
| Clc1ccc(-c2c[nH]cc2N2CCOCC2)cc1 | 3.2 |
| CC(C)NC(=NC#N)NS(=O)(=O)c1cnccc1Nc1ccc(Cl)cc1 | 2.37 |
| CCOP(=O)(OCC)C(Cl)(Cl)P(=O)(OCC)OCC | 1.31 |
| CCC1CC2C3CCC4=CC(=O)CCC4C3CCC2(C)C1C(=O)CO (centres undefined) | 4.01 |
| CN(C)c1cc[n+]([O-])cc1 | -0.9 |
| CCCN(CCC)C1CCc2c(OC)cccc2C1C (centres undefined) | 4.76 |
| Cc1coc2cc3oc(=O)ccc3cc12 | 2.47 |
| CCC(C)C(NC(=O)C(N)CC(C)C)C(=O)O (stereo not drawn) (H-Leu-Ile-OH; configuration not given here) | -1.64 |
| CC(C)(C)[N+]([O-])=Cc1ccncc1 | 0.4 |
| COc1ccc(CCNCC(O)COc2ccc(-c3nc(Br)c[nH]3)cc2)cc1OC (centres undefined) | 3.2 |
| COc1ccc(-c2cn3cc(N)cnc3n2)c(OC)c1 | 1.68 |
| CN(c1nc2ccccc2s1)C1CCN(CC(O)COc2ccc(F)cc2)CC1 (centres undefined) | 4.61 |
| CC(=O)NN=Cc1c(CO)ccc(C)c1O | 1.71 |
| CC(NCC(O)CON=C(C1CC1)C1CC1)c1ccccc1 (centres undefined) | 2.32 |

Source: the OPERA property sets (Mansouri et al. 2018)
